From patent US11767310B2, “Nicotinamide RIPK1 inhibitors” (AbbVie Inc., priority 2021, dated 2023)
Like-named read-outs stand apart in the source and are kept apart here.

Legend:
Test in all cases: Kinase binding screen
Conditions in all cases: read-out: Percent Control at 100 nM Compound Concentration
[1] = molecular target: ABL1(H396P)-phosphorylated (Homo sapiens (Human), UniProt P00519, H396P)
[2] = molecular target: PAK7 (Homo sapiens (Human), UniProt Q9P286)
[3] = molecular target: LCK (Homo sapiens (Human), UniProt P06239)
[4] = molecular target: LYN (Homo sapiens (Human), UniProt P07948)
[5] = molecular target: YANK3 (Homo sapiens (Human), UniProt Q86UX6)
[6] = molecular target: MKNK1 (Homo sapiens (Human), UniProt Q9BUB5)
[7] = molecular target: MY03B (Homo sapiens (Human), UniProt Q8WXR4)
[8] = molecular target: TIE2 (Homo sapiens (Human), UniProt Q02763)
[9] = molecular target: PDGFRA (Homo sapiens (Human), UniProt P16234)
[10] = molecular target: ABL1(M351T)-phosphorylated (Homo sapiens (Human), UniProt P00519, M351T)
[11] = molecular target: EGFR(T790M) (Homo sapiens (Human), UniProt P00533, T790M)
Sequence of EGFR(T790M) (P00533 25-1210 T790M): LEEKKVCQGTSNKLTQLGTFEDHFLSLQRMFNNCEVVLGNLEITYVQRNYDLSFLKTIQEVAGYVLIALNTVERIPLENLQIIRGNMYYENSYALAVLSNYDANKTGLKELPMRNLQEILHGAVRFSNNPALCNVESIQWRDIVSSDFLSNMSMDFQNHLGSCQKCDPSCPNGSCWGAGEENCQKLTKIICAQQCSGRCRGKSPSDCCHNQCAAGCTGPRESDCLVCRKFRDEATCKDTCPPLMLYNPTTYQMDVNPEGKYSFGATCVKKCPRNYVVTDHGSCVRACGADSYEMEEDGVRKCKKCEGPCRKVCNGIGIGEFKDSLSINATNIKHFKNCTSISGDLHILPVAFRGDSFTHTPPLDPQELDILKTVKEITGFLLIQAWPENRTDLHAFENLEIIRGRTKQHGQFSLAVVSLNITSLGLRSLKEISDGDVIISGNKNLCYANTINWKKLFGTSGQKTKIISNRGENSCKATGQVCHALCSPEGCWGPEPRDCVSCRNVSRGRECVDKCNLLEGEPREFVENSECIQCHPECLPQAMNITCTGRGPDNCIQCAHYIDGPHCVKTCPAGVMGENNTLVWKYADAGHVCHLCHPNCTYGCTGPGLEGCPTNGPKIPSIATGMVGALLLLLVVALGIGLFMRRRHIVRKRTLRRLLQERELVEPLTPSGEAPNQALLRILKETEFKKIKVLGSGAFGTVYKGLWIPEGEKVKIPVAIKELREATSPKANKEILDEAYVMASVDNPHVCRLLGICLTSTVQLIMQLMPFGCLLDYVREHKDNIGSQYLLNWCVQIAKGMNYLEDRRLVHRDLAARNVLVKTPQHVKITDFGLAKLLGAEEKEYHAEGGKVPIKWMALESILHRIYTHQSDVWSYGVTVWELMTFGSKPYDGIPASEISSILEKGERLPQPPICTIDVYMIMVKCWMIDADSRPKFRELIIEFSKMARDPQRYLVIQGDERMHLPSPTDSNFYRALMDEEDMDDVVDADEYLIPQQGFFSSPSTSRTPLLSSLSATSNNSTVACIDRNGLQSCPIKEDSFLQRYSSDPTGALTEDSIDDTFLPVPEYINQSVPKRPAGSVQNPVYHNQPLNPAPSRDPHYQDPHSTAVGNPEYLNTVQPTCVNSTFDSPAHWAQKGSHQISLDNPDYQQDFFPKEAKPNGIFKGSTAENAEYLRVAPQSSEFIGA

[12] = molecular target: ULK2 (Homo sapiens (Human), UniProt Q8IYT8)
[13] = molecular target: FGFR1 (Homo sapiens (Human), UniProt P11362)
[14] = molecular target: NEK9 (Homo sapiens (Human), UniProt Q8TD19)
Sequence of NEK9 (Q8TD19 whole entry): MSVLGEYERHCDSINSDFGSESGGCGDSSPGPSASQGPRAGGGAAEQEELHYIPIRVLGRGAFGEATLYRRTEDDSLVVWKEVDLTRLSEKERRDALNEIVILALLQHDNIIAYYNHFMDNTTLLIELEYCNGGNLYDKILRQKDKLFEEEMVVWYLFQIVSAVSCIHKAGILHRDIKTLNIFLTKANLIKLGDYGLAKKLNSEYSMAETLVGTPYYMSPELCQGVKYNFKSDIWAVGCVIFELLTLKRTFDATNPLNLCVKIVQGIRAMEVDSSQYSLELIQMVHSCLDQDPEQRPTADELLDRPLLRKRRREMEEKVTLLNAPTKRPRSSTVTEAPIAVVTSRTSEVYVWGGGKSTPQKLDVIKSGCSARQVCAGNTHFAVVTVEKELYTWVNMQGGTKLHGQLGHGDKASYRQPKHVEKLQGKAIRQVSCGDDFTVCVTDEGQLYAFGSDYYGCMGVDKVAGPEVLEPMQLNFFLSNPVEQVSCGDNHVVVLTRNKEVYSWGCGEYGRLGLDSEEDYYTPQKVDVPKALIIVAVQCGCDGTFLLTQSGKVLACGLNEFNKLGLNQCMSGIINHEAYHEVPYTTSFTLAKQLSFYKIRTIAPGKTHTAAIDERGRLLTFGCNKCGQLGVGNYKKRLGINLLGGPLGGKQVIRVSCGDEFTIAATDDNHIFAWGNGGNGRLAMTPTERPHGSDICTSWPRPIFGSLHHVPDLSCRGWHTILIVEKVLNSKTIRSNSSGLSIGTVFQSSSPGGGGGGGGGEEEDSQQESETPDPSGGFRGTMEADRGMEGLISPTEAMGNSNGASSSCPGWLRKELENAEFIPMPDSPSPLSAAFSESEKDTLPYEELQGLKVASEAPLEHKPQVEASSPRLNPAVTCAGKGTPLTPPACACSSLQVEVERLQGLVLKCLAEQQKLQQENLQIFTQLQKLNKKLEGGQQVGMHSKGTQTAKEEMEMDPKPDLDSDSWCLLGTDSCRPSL

[15] = molecular target: TNK1 (Homo sapiens (Human), UniProt Q13470)
Sequence of TNK1 (Q13470 whole entry): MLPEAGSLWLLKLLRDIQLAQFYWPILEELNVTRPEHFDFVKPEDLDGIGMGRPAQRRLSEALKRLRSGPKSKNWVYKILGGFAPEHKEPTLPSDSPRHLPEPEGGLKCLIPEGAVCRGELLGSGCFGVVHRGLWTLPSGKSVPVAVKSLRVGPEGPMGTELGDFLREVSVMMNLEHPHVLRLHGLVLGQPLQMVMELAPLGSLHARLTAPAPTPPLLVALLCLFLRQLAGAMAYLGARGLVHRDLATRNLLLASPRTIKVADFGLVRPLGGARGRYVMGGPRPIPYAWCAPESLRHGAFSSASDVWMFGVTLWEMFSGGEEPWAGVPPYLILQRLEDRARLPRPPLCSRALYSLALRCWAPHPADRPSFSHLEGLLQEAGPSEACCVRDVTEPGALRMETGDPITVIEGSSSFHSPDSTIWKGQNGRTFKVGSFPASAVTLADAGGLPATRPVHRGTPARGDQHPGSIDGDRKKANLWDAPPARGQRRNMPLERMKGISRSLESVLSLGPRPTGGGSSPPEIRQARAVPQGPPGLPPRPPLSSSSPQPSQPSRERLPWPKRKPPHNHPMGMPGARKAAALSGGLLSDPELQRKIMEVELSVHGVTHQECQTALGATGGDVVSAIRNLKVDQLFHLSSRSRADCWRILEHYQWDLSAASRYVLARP

[16] = molecular target: FLT3(R834Q) (Homo sapiens (Human), UniProt P36888, R834Q)
[17] = molecular target: ABL2 (Homo sapiens (Human), UniProt P42684)
[18] = molecular target: RET (Homo sapiens (Human), UniProt P07949)
[19] = molecular target: HASPIN (Homo sapiens (Human), UniProt Q8TF76)
[20] = molecular target: ERK2 (Homo sapiens (Human), UniProt P28482)
[21] = molecular target: EIF2AK1 (Homo sapiens (Human), UniProt Q9BQI3)
[22] = molecular target: GRK3 (Homo sapiens (Human), UniProt P35626)
[23] = molecular target: MAPKAPK5 (Homo sapiens (Human), UniProt Q8IW41)
Sequence of MAPKAPK5 (Q8IW41 whole entry): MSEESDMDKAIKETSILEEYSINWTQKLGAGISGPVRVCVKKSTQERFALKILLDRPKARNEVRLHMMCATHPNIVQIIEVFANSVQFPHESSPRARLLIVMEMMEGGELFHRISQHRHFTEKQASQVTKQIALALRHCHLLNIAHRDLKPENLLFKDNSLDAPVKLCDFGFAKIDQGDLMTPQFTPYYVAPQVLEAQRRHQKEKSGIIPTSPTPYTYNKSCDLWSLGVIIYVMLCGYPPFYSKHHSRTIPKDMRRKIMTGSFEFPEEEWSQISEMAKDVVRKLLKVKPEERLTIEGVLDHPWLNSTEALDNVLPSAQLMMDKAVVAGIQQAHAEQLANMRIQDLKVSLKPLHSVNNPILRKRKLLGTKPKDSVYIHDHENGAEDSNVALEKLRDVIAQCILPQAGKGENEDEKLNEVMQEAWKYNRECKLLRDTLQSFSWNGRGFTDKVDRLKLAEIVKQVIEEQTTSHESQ

[24] = molecular target: PIK3C2G (Homo sapiens (Human), UniProt O75747)
[25] = molecular target: IRAK3 (Homo sapiens (Human), UniProt Q9Y616)
Sequence of IRAK3 (Q9Y616 whole entry): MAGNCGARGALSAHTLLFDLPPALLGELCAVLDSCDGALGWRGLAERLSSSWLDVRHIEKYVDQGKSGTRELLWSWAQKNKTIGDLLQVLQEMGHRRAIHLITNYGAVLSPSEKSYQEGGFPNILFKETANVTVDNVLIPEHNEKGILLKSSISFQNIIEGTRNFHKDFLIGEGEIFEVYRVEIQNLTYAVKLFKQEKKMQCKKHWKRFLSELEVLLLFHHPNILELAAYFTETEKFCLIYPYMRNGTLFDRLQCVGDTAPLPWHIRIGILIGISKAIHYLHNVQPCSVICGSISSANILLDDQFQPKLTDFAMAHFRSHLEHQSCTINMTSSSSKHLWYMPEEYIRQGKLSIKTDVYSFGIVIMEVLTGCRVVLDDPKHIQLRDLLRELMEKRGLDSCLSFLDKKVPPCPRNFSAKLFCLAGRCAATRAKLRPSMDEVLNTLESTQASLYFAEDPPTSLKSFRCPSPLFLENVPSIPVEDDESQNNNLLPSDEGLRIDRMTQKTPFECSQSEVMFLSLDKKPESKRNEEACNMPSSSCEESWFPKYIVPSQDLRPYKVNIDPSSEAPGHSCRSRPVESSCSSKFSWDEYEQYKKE

[26] = molecular target: RET(V804M) (Homo sapiens (Human), UniProt P07949, V804M)
[27] = molecular target: JAK1(JH1domain-catalytic) (Homo sapiens (Human), UniProt P23458)
Sequence of JAK1(JH1domain-catalytic) (P23458 875-1153): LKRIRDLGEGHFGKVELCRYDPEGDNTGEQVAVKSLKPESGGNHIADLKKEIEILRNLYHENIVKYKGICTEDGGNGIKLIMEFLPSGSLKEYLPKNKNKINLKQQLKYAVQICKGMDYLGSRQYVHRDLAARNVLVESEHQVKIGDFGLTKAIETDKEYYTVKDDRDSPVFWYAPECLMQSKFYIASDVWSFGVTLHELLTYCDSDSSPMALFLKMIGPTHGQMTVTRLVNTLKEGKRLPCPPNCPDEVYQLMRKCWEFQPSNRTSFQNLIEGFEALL

[28] = molecular target: TNIK (Homo sapiens (Human), UniProt Q9UKE5)
[29] = molecular target: GRK1 (Homo sapiens (Human), UniProt Q15835)
Sequence of GRK1 (Q15835 whole entry): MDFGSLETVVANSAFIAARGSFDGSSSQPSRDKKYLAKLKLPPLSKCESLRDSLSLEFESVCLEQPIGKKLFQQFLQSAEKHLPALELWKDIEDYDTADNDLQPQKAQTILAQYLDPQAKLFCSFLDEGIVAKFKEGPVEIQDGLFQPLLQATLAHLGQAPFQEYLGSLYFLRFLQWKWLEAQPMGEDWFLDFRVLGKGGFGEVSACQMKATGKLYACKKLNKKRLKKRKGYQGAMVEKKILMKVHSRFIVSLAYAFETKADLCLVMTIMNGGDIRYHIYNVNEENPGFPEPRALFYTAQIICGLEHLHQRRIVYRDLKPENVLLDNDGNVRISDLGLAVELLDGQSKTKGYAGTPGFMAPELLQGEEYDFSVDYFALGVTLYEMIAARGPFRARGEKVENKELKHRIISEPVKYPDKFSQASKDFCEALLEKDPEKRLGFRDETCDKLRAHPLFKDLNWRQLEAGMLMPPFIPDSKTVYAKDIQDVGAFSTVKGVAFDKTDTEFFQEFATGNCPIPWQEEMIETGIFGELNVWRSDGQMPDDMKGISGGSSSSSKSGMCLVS

## CN(C[C@@H](O)Cc1ccccc1)C(=O)c1cncc(C#Cc2cnn(C(F)F)c2)c1 [Example 2, (S)-5-((1-(difluoromethyl)-1H-pyrazol-4-yl)ethynyl)-N-(2-hydroxy-3-phenylpropyl)-N-methylnicotinamide]
[1]; ABL1(H396P)-phosphorylated
  remaining activity at 0.1 µM: 94%
[2]; PAK7
  remaining activity at 0.1 µM: 100%
[3]; LCK
  remaining activity at 0.1 µM: 100%
[4]; LYN
  remaining activity at 0.1 µM: 71%
[5]; YANK3
  remaining activity at 0.1 µM: 67%
[6]; MKNK1
  remaining activity at 0.1 µM: 96%
[7]; MY03B
  remaining activity at 0.1 µM: 95%
[8]; TIE2
  remaining activity at 0.1 µM: 100%
[9]; PDGFRA
  remaining activity at 0.1 µM: 73%
[10]; ABL1(M351T)-phosphorylated
  remaining activity at 0.1 µM: 86%
[11]; EGFR(T790M)
  remaining activity at 0.1 µM: 100%
[12]; ULK2
  remaining activity at 0.1 µM: 100%
[13]; FGFR1
  remaining activity at 0.1 µM: 94%
[14]; NEK9
  remaining activity at 0.1 µM: 100%
[15]; TNK1
  remaining activity at 0.1 µM: 100%
[16]; FLT3(R834Q)
  remaining activity at 0.1 µM: 100%
[17]; ABL2
  remaining activity at 0.1 µM: 100%
[18]; RET
  remaining activity at 0.1 µM: 100%
[19]; HASPIN
  remaining activity at 0.1 µM: 86%
[20]; ERK2
  remaining activity at 0.1 µM: 100%
[21]; EIF2AK1
  remaining activity at 0.1 µM: 100%
[22]; GRK3
  remaining activity at 0.1 µM: 82%
[23]; MAPKAPK5
  remaining activity at 0.1 µM: 94%
[24]; PIK3C2G
  remaining activity at 0.1 µM: 85%
[25]; IRAK3
  remaining activity at 0.1 µM: 96%
[26]; RET(V804M)
  remaining activity at 0.1 µM: 100%
[27]; JAK1(JH1domain-catalytic)
  remaining activity at 0.1 µM: 100%
[28]; TNIK
  remaining activity at 0.1 µM: 100%
[29]; GRK1
  remaining activity at 0.1 µM: 100%

## CN(C[C@H](Cc1ccccc1)OP(=O)(O)O)C(=O)c1cncc(C#Cc2cnn(C(F)F)c2)c1 [Example 19, (S)-1-(5-((1-(difluoromethyl)-1H-pyrazol-4-yl)ethynyl)-N-methylnicotinamido)-3-phenylpropan-2-yl dihydrogen phosphate]
[1]
  remaining activity at 0.1 µM: 93%
[2]
  remaining activity at 0.1 µM: 100%
[3]
  remaining activity at 0.1 µM: 95%
[4]
  remaining activity at 0.1 µM: 80%
[5]
  remaining activity at 0.1 µM: 54%
[6]
  remaining activity at 0.1 µM: 91%
[7]
  remaining activity at 0.1 µM: 79%
[8]
  remaining activity at 0.1 µM: 88%
[9]
  remaining activity at 0.1 µM: 85%
[10]
  remaining activity at 0.1 µM: 97%
[11]
  remaining activity at 0.1 µM: 100%
[12]
  remaining activity at 0.1 µM: 94%
[13]
  remaining activity at 0.1 µM: 95%
[14]
  remaining activity at 0.1 µM: 100%
[15]
  remaining activity at 0.1 µM: 100%
[16]
  remaining activity at 0.1 µM: 100%
[17]
  remaining activity at 0.1 µM: 98%
[18]
  remaining activity at 0.1 µM: 100%
[19]
  remaining activity at 0.1 µM: 83%
[20]
  remaining activity at 0.1 µM: 100%
[21]
  remaining activity at 0.1 µM: 96%
[22]
  remaining activity at 0.1 µM: 81%
[23]
  remaining activity at 0.1 µM: 96%
[24]
  remaining activity at 0.1 µM: 78%
[25]
  remaining activity at 0.1 µM: 92%
[26]
  remaining activity at 0.1 µM: 100%
[27]
  remaining activity at 0.1 µM: 100%
[28]
  remaining activity at 0.1 µM: 100%
[29]
  remaining activity at 0.1 µM: 98%
